The test system of the experiment is PC-12 cells. The experiment in a line: Glutamate toxicity in PC-12 cells (trypan blue exclusion). In kind it is cell-based, rat. On the procedure: […] cells (from a rat Pheochromocytoma) were cultured on poly-D-Lysine coated tissue culture plastic in DMEM containing 10% FBS and 5% Horse serum. To induce the neuronal phenotype in PC-12 cells, serum was removed and the cells were treated with NGF (50 ng/ml). Cells were grown for 7 days in the presence of the NGF then used for experiments.
PC-12 cells were cultured as described above. 24 hr prior to insult, cells were treated with rhEPO at concentrations ranging from 1 pm to 1 nm. On the day of the experiment, cells were exposed to 200 μM glutamate for 30 min. Cells were then washed 2 times with fresh media to remove the glutamate and cultured in fresh media containing NGF but no EPO. After 24 hr cells were assayed for viability using a trypan blue exclusion assay. Briefly, media was removed and the cells were incubated in 0.4% Trypan Blue for 5 min. Cells were then washed gently with PBS, then fixed with 10% formalin. Cell viability was determined by counting the total number of cells vs. the number of trypan blue positive (dead) cells.

This is an account of results in US20090170759A1, “NEUROPROTECTIVE PEPTIDES” (priority 2007, published 2009).

Regarding “rhEPO: purified, recombinant human EPO (rhEPO), currently formulated and distributed under the trademarks of EPREX, ERYPO, or PROCRIT”, the “neuroprotective effect at 1 nm, glutamate toxicity” value (1 nm) was “no significant effect”. Further, where the note is “1 to 10 pm given 24 hours prior to glutamate (200 um), p<0.001”, the “cell survival after glutamate (in words)” value is “significantly increased cell survival”. Besides, the “cell death induced by glutamate toxicity (in words)” value (24 hr pre-treatment) is recorded as “significant decrease in cell death”. In addition, the “peak concentration for the neuroprotective effect, glutamate toxicity” value (24 hr pre-treatment, 200 μM glutamate) came to 10 pm.
